pIC50: −log10 of the molar value.
Molecular target: Acetylcholinesterase (AChE) (Electrophorus electricus, UniProt O42275)
Experiment: Ellman colorimetric enzyme inhibition assay (commercial enzyme)
Format: biochemical

Sequence of Acetylcholinesterase (AChE) (O42275 24-633): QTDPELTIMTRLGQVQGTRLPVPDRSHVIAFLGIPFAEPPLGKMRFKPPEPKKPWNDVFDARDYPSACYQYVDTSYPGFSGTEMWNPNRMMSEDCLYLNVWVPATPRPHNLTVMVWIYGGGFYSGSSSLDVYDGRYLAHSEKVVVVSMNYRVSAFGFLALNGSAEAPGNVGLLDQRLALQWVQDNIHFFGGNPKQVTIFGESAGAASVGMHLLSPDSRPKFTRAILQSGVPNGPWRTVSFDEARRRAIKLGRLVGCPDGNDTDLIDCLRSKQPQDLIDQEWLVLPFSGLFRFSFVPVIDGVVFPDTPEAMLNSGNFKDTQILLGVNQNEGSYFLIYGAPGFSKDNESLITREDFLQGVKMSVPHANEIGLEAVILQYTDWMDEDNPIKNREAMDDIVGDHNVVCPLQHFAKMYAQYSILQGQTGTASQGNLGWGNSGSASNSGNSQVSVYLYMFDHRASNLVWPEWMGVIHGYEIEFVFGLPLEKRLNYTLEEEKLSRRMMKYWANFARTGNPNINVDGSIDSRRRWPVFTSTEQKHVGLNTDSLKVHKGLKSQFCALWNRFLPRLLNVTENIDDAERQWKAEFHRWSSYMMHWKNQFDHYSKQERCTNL

## O=C1CCCC1C(O)c1cccc([N+](=O)[O-])c1 (stereo not shown) [3NCP, 2-(hydroxy-(3-nitrophenyl)methyl)cyclopentanone]
  pIC50: 4.16

Source: paper PMC7603158, “Attenuation of Spatial Memory in 5xFAD Mice by Halting Cholinesterases, Oxidative Stress and Neuroinflammation Using a Cyclopentanone Derivative” (Pharmaceuticals, 2020)
